Test results reported in ChEMBL document CHEMBL3046758, “Biological evaluation of novel 1,4-dithiine derivatives as potential antimicrobial agents” (Med Chem Res, 2011).
Converted amounts (≈) assume the structure as drawn.

Experiments:
[1] = Cytotoxicity against Chlorocebus aethiops (African green monkey) Vero76 cells after 48 to 120 hr by MTT assay; assay type: cell-based, Vero 76; settings: chlorocebus sabaeus
[2] = system: Coxsackievirus B2; test: Antiviral activity against Human coxsackievirus B2 infected African green monkey Vero76 cells assessed as reduction of virus-induced plaque reduction after 3 days by MTT assay; assay type: functional, organism-based; settings: Enterovirus B, Vero 76, 72 h
[3] = system: Pseudomonas aeruginosa; test: Antibacterial activity against Pseudomonas aeruginosa DSM 1117 after 16 to 20 hr by broth microdilution method; assay type: functional
[4] = Selectivity index, ratio of CC50 for green monkey Vero76 cells to EC50 for Yellow fever virus; assay type: toxicity, cell-based, Vero 76; settings: read-out: Ratio CC50/EC50
[5] = system: Poliovirus 1; test: Antiviral activity against Human poliovirus 1 strain Sabin infected African green monkey Vero76 cells assessed as reduction of virus-induced plaque reduction after 2 days by MTT assay; assay type: functional, organism-based; settings: Enterovirus C, Vero 76, 48 h
[6] = system: Bovine viral diarrhea virus 1; test: Antiviral activity against Bovine viral diarrhea virus 1 infected MDBK cells assessed as inhibition of virus-induced cytopathogenicity after 3 to 4 days by MTT assay; assay type: functional, organism-based; settings: Bovine viral diarrhea virus isolates and strains
[7] = system: Vesicular stomatitis virus; test: Antiviral activity against Vesicular stomatitis virus infected african green monkey Vero76 cells assessed as reduction of virus-induced plaque reduction after 3 days by MTT assay; assay type: functional, organism-based; settings: Vero 76, 72 h
[8] = system: Staphylococcus aureus; test: Antibacterial activity against Staphylococcus aureus DSM 2569 after 16 to 20 hr by broth microdilution method; assay type: functional
[9] = Cytotoxicity against Cricetinae BHK21 (hamster normal kidney fibroblast) cells after 48 to 120 hr by MTT assay; assay type: cell-based, Mesocricetus auratus, BHK-21; settings: BHK21 cells (normal kidney fibroblasts)
[10] = system: Yellow fever virus; test: Antiviral activity against Yellow fever virus infected BHK21 cells assessed as inhibition of virus-induced cytopathogenicity after 3 to 4 days by MTT assay; assay type: functional, organism-based; settings: BHK-21
[11] = system: Candida albicans; test: Antifungal activity against Candida albicans DSM 1386 after 24 to 48 hr by broth microdilution method; assay type: functional
[12] = system: Human alphaherpesvirus 1; test: Antiviral activity against Human herpesvirus 1 infected African green monkey Vero76 cells assessed as reduction of virus-induced plaque reduction after 3 days by MTT assay; assay type: functional, organism-based; settings: Human alphaherpesvirus 1, Vero 76, 72 h
[13] = system: Aspergillus niger; test: Antifungal activity against Aspergillus niger DSM 1988 after 24 to 48 hr by broth microdilution method; assay type: functional
[14] = Cytotoxicity against Bos taurus MDBK cells after 48 to 120 hr by MTT assay; assay type: cell-based; settings: cattle
[15] = Selectivity index, ratio of CC50 for green monkey Vero76 cells to EC50 for HSV1; set-up: species or system Vero 76
[16] = Selectivity index, ratio of CC50 for green monkey Vero76 cells to EC50 for Coxsackievirus B2; assay type: toxicity, cell-based, Vero 76; settings: read-out: Ratio CC50/EC50
[17] = Cytotoxicity against Homo sapiens (human) MT4 cells containing integrated HTLV-1 genome after 96 hr by MTT assay; assay type: cell-based
[18] = system: Vaccinia virus; test: Antiviral activity against Vaccinia virus infected African green monkey Vero76 cells assessed as reduction of virus-induced plaque reduction after 3 days by MTT assay; assay type: functional, organism-based; settings: Orthopoxvirus vaccinia, Vero 76, 72 h
[19] = system: Human immunodeficiency virus 1; test: Antiviral activity against Human immunodeficiency virus 1 infected human MT4 cells assessed as inhibition of virus-induced cytopathogenicity after 4 days by MTT assay; assay type: functional, organism-based; settings: Human immunodeficiency virus 1, MT4, 96 h
[20] = system: Mammalian orthoreovirus 1; test: Antiviral activity against Mammalian orthoreovirus 1 infected BHK21 cells assessed as inhibition of virus-induced cytopathogenicity after 3 to 4 days by MTT assay; assay type: functional, organism-based; settings: Mammalian orthoreovirus 1, BHK-21

Row | Compound | CC50 [1] [µM] | EC50 [2] [µM] | MIC [3] [µM] | selectivity ratio [4] | EC50 [5] [µM] | EC50 [6] [µM] | EC50 [7] [µM] | MIC [8] [µM] | CC50 [9] [µM] | EC50 [10] [µM] | MIC [11] [µM] | EC50 [12] [µM] | MIC [13] [µM] | CC50 [14] [µM] | Ratio CC50/EC50 [15] | selectivity ratio [16] | CC50 at 96 h [17] [µM] | EC50 [18] [µM] | EC50 [19] [µM] | EC50 [20] [µM]
1 | O=C1C2=C(SCCS2)C(=O)N1CCCCN1CCN(c2ccccc2)CC1 | > 100 | 66 | > 100 | > 1.14 | > 100 | > 100 | > 100 | > 100 | > 100 | 88 | > 100 | 19 | > 100 | > 100 | >5.26 | > 1.51 | > 100 | > 100 | > 100 | > 100
2 | O=C1C2=C(SCCS2)C(=O)N1CCCN1CCN(c2ccc(F)cc2)CC1 | 96 | 20 | > 100 | > 1.92 | > 96 | > 100 | > 96 | > 100 | > 100 | 52 | > 100 | > 96 | > 100 | > 100 |  | > 4.8 | > 100 | > 96 | > 100 | > 100
3 | Clc1ccc(COC(Cn2ccnc2)c2ccc(Cl)cc2Cl)c(Cl)c1 (configuration not stated) [MICONAZOLE] |  |  |  |  |  |  |  |  |  |  | 0.8 (≈ 0.333 µg/mL) |  | 20 (≈ 8.32 µg/mL) |  |  |  |  |  |  | 
4 | O=C1C2=C(SCCS2)C(=O)N1CCCN1CCN(c2ccccc2O)CC1 |  |  |  |  |  |  |  |  |  |  |  |  |  |  |  |  | > 100 |  |  | 
5 | O=C1C2=C(SCCS2)C(=O)N1CC(O)CN1CCN(c2ccccn2)CC1 (configuration not stated) |  |  | > 100 |  |  |  |  | > 100 |  |  | > 100 |  | > 100 |  |  |  | > 100 |  |  | 
6 | CC(C)(C)NCC(O)CN1C(=O)C2=C(SCCS2)C1=O (configuration not stated) |  |  | > 100 |  |  |  |  | > 100 |  |  | > 100 |  | > 100 |  |  |  | > 100 |  |  | 
7 | O=C1C2=C(SCCS2)C(=O)N1CCCCN1CCN(c2ccc(F)cc2)CC1 | > 100 | 21 | > 100 |  | > 100 | > 100 | > 100 | > 100 | > 100 | > 100 | > 100 | > 100 | > 100 | > 100 |  | > 4.76 | > 100 | > 100 | > 100 | > 100
8 | O=C1C2=C(SCCS2)C(=O)N1CCCCN1CCN(Cc2ccccc2)CC1 | > 100 | > 100 | > 100 |  | > 100 | > 100 | > 100 | > 100 | > 100 | > 100 | > 100 | 29 | > 100 | > 100 | >3.45 |  | > 100 | > 100 | > 100 | > 100
9 | O=C1NC(=O)C2=C1SCCS2 |  |  | > 100 |  |  |  |  | > 100 |  |  | > 100 |  | > 100 |  |  |  | > 100 |  |  | 
10 | O=C1C2=C(SCCS2)C(=O)N1CC(O)CN1CCN(c2ccc(F)cc2)CC1 (configuration not stated) | > 100 | > 100 | > 100 | > 1.25 | > 100 | > 100 | > 100 | > 100 | > 100 | 80 | > 100 | > 100 | > 100 | > 100 |  |  | > 100 | > 100 | > 100 | > 100
11 | Cc1cn([C@H]2C[C@H](N=[N+]=[N-])[C@@H](CO)O2)c(=O)[nH]c1=O [ZIDOVUDINE] |  |  |  |  |  |  |  |  |  |  |  |  |  |  |  |  | 50 |  | 0.01 | 
12 | O=C1C2=C(SCCS2)C(=O)N1CCCCN1CCN(c2ccccn2)CC1 | > 100 | 32 | > 100 |  | > 100 | > 100 | > 100 | > 100 | > 100 | > 100 | > 100 | > 100 | > 100 | > 100 |  | > 3.12 | > 100 | > 100 | > 100 | > 100
13 | COc1ccccc1N1CCN(CCCCN2C(=O)C3=C(SCCS3)C2=O)CC1 |  |  |  |  |  |  |  |  |  |  |  |  |  |  |  |  | > 100 |  |  | 
14 | COc1c(C)c2c(c(O)c1C/C=C(\C)CCC(=O)O)C(=O)OC2 [MYCOPHENOLIC ACID] |  |  |  |  |  |  |  |  |  |  |  |  |  |  |  |  |  | 1.8 |  | 
15 | O=C1C2=C(SCCS2)C(=O)N1CCCN1CCN(c2ccccn2)CC1 |  |  | > 100 |  |  |  |  | > 100 |  |  | > 100 |  | > 100 |  |  |  | > 100 |  |  | 
16 | O=C1C2=C(SCCS2)C(=O)N1CC(O)CN1CCCCC1 (configuration not stated) |  |  | > 100 |  |  |  |  | > 100 |  |  | > 100 |  | > 100 |  |  |  | > 100 |  |  | 
17 | COc1ccccc1N1CCN(CC(O)CN2C(=O)C3=C(SCCS3)C2=O)CC1 (configuration not stated) | > 100 | > 100 | > 100 | > 1.33 | > 100 | > 100 | > 100 | > 100 | > 100 | 75 | > 100 | > 100 | > 100 | > 100 |  |  | > 100 | > 100 | > 100 | > 100
18 | O=C1OC(=O)C2=C1SCCS2 |  |  | > 100 |  |  |  |  | > 100 |  |  | > 100 |  | > 100 |  |  |  |  |  |  | 
19 | COc1ccccc1N1CCN(CCCN2C(=O)C3=C(SCCS3)C2=O)CC1 |  |  |  |  |  |  |  |  |  |  |  |  |  |  |  |  | > 100 |  |  | 
20 | CN(C)CC(O)CN1C(=O)C2=C(SCCS2)C1=O (configuration not stated) |  |  | > 100 |  |  |  |  | > 100 |  |  | > 100 |  | > 100 |  |  |  | > 100 |  |  | 
21 | CCN(CC)CC(O)CN1C(=O)C2=C(SCCS2)C1=O (configuration not stated) |  |  | > 100 |  |  |  |  | > 100 |  |  | > 100 |  | > 100 |  |  |  | > 100 |  |  | 
22 | CC1CCN(CC(O)CN2C(=O)C3=C(SCCS3)C2=O)CC1 (configuration not stated) |  |  | > 100 |  |  |  |  | > 100 |  |  | > 100 |  | > 100 |  |  |  | > 100 |  |  | 
23 | O=C1C2=C(SCCS2)C(=O)N1CC(O)CN1CCN(c2ccccc2)CC1 (configuration not stated) |  |  | > 100 |  |  |  |  | > 100 |  |  | > 100 |  | > 100 |  |  |  | > 100 |  |  | 
24 | O=C1C2=C(SCCS2)C(=O)N1CCCCN1CCN(c2ccccc2O)CC1 |  |  |  |  |  |  |  |  |  |  |  |  |  |  |  |  | > 100 |  |  | 
25 | C#C[C@@]1(O)[C@H](O)[C@@H](CO)O[C@H]1n1ccc(N)nc1=O [2'-ETHYNYL-D-CYTIDINE] |  | 23 |  |  | 18 |  |  |  |  |  |  |  |  |  |  |  |  |  |  | 
26 | O=C1C2=C(SCCS2)C(=O)N1CCCCN1CCN(c2ncccn2)CC1 |  |  |  |  |  |  |  |  |  |  |  |  |  |  |  |  | > 100 |  |  | 
27 | O=C(O)c1cn(C2CC2)c2cc(N3CCNCC3)c(F)cc2c1=O [CIPROFLOXACIN] |  |  | 0.8 (≈ 0.265 µg/mL) |  |  |  |  | 4 (≈ 1.33 µg/mL) |  |  |  |  |  |  |  |  |  |  |  | 
